In US20160074480A1, “INNOVATIVE METHODS OF TREATMENTING TUBERCULOSIS” (priority 2015, published 2016):

Tests used:
[1] = 2 mg/kg; amikacin 450 mg/kg; cited from earlier work
M. tuberculosis = settings: added to or substituted in isoniazid, rifampicin and pyrazinamide triple therapy; cited from earlier work
[2] = Finger stick blood sugar after insulin; assay type: in vivo, human; settings: 10 minutes after 5-10 units subcutaneously or IV
Description: Blood sugar was tested by using finger stick. We administered 5-10 units of homolog (rapid acting) insulin subcutaneously or IV slowly depending on the blood sugar levels. The glucose was checked 10 minutes later. It has dropped to ±40 mg %.

[3] = tested on: MCF-7 Human Breast Cancer Cells; settings: insulin with methotrexate; cited from earlier work
[4] = in vivo; cited from earlier work
latent tuberculosis = settings: taken daily for 9 months; cited from earlier work
tuberculosis bacteria = settings: treated for 3 days, versus untreated sample; cited from earlier work
[5] = tested on: Mycobacterium tuberculosis growth; settings: cited from earlier work
pulmonary tuberculosis = settings: given alone; cited from earlier work

CCOC(=O)C1=C[C@]2(CC)CCCN3CCc4c(n1c1ccccc41)[C@@H]32 [Vinpocetine]
hearing loss [1]: prevented hearing loss

COc1nc2ccc(Br)cc2cc1[C@@H](c1ccccc1)[C@@](O)(CCN(C)C)c1cccc2ccccc12 [R-207910, Bedaquiline]
effectiveness of treatment (M. tuberculosis): increased the effectiveness

insulin: hormone produced in beta cells of pancreas, large polypeptide of A and B chains
blood glucose by finger stick [2]: ~40 mg %
enhancement of the activity of methotrexate [3]: 10,000 times

NNC(=O)c1ccncc1 [isoniazid, Isoniazid]
ADVERSE EVENT/CONTRAINDICATION [4]: Peripheral neuropathy
reduction of the risk of active TB (latent tuberculosis): ≤ 90%
intracellular levels of ferrous ions (tuberculosis bacteria): up to ten times higher

Capreomycin
concentration inhibiting growth [5]: 2.5 µg/mL
adverse effects stated in the text [4]: nephrotoxicity and 8th cranial auditory vestibular nerve toxicity

[H]/N=C(/N)N[C@H]1[C@H](O)[C@@H](O)[C@H](O[C@@H]2O[C@@H](C)[C@](O)(C=O)[C@H]2O[C@@H]2O[C@@H](CO)[C@H](O)[C@@H](O)[C@@H]2NC)[C@@H](N/C(N)=N\[H])[C@@H]1O [Streptomycin]
immediate mortality (pulmonary tuberculosis): dramatic reduction in immediate mortality
ADVERSE EVENT/CONTRAINDICATION [4]: Deafness, Contraindicated during pregnancy
